The values that follow are results of earlier work, collected in US20160303150A1, “DEUTERATED TREHALOSE FORMULATIONS AND USES THEREOF” (BioBlast Pharma Ltd., priority 2015, published 2016).

The conditions of data set [1]: in vivo.
Where [2] appears, read: 0.2%-5% trehalose in drinking water, 5-9 weeks, transgenic HD mice.

For `OC[C@H]1O[C@H](O[C@H]2O[C@H](CO)[C@@H](O)[C@H](O)[C@H]2O)[C@H](O)[C@@H](O)[C@@H]1O` [trehalose, α-G-glucopyranosyl α-D-glucopyranoside], the “aggregation formation and toxicity of mutant PABPN1 in myocytes” value with transgenic OPMD mice (2% trehalose in drinking water, 4-6 months) is “significantly reduce aggregation formation and toxicity of the mutant PABPN1 in myocytes”. Besides, the “OPMD onset, disease phenotype, aggregate formation and cell death” value in the data set with transgenic OPMD mice (oral trehalose) is “delay the OPMD onset, attenuate the disease phenotype, decrease polyalanine protein aggregate formation and decrease cell death”. Moreover, in data set [1], the “fraction of administered trehalose not absorbed into the blood stream” value is “over 99.5%”. Besides, in the data set with transgenic HD mice (setting [2]), the HD-related motor symptoms entry is reported as “improvement of HD-related motor symptoms”; the “formation of intra-nuclear huntingtin aggregates in the brain and liver” value is “inhibition of formation of intra-nuclear huntingtin aggregates in the brain and liver”. Moreover, the survival entry with transgenic HD mice (oral administration, HD mouse model) is reported as “extend survival”. For the same compound, where the note is “oral”, the “oral amount causing diarrhea and bloating” value is on record as 40-50 gram per day. For the same compound, where the note is “oral doses ranging from 10 to 60 gr, healthy volunteers”, the “safety findings in healthy volunteers” value is on record as “no other safety issues were reported”. Also, the “oral amount frequently causing diarrhea, bloating and discomfort” value (oral, humans) is given as “higher than 50 g a day”.
